Measured values as given in PMC10586285 (ACS Omega, 2023).
Where two headings read alike, the source gives them in different places.

What was measured:
COX-1 = COX-1 (Homo sapiens, UniProt P23219); assay: biochemical
Caco-2 cells = assay: Anticancer test; type: cell-based; settings: for IC50: read-out: IC50 (Caco-2 Cells)
COX-2 = target: T1, COX-2 (Homo sapiens, UniProt P35354); assay: biochemical; settings: for COX-2 selectivity: selectivity index = IC50 COX-1 / IC50 COX-2
T1 sequence (P35354 18-604): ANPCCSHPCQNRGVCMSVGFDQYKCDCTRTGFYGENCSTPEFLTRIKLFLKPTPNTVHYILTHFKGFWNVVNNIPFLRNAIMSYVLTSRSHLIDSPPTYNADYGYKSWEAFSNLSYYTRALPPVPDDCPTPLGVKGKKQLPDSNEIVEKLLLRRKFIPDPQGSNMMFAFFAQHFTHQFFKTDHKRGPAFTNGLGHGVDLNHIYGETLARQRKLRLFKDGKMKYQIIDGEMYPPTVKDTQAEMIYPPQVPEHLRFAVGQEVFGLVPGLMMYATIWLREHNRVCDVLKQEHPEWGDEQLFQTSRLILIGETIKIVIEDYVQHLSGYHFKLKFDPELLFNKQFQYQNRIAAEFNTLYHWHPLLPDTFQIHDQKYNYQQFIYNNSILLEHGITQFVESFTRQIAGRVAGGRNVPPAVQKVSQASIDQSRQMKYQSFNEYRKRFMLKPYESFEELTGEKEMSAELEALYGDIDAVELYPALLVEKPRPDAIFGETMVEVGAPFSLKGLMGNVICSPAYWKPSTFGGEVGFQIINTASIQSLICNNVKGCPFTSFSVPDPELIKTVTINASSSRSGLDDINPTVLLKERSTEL

DPPH antioxidant = settings: for IC50: read-out: IC50 (Antioxidant), DPPH assay
Hep G2 cells = assay: Anticancer test; type: cell-based; settings: for IC50: read-out: IC50 (Hep G2)
HeLa cells = assay: Anticancer test; type: cell-based; settings: for IC50: read-out: IC50 (Hela Cells)
[1] = cited from earlier work
[2] = cited from earlier work; remark: listed apart in the source
[3] = read-out: COX-1 IC50, human COX-1, ELISA kit
[4] = Caco-2 cells, MTS, 48 h, concentration range 100-20,000 nM
[5] = read-out: COX-2 IC50, human COX-2, ELISA kit
[6] = Hep G2 cells, MTS, 48 h, concentration range 100-20,000 nM

Sequence of COX-1 (P23219 24-599): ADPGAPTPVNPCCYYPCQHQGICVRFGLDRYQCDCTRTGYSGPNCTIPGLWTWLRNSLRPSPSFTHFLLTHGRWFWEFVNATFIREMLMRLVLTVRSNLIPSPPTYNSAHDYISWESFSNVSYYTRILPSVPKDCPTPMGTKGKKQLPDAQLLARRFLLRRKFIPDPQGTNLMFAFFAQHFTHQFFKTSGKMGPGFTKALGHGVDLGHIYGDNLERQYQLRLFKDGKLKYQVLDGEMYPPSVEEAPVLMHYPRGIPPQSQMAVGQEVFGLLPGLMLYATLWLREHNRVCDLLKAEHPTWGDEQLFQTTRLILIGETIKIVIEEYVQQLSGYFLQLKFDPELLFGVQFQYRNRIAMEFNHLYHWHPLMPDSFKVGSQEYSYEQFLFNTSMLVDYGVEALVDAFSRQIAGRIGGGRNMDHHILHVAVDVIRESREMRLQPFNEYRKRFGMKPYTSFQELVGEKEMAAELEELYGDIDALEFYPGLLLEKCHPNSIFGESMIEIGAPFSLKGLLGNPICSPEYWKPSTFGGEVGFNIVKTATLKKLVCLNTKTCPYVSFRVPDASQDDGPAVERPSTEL

| COX-2 selectivity (COX-2) | IC50 (COX-1) | IC50 (COX-2) | Molecule | percentage inhibition of DPPH (DPPH antioxidant; conc 1 μg/mL) | percentage inhibition of DPPH (DPPH antioxidant; conc 2 μg/mL) | percentage inhibition of DPPH (DPPH antioxidant; conc 3 μg/mL) | percentage inhibition of DPPH (DPPH antioxidant; conc 5 μg/mL) | percentage inhibition of DPPH (DPPH antioxidant; conc 7 μg/mL) | percentage inhibition of DPPH (DPPH antioxidant; conc 10 μg/mL) | percentage inhibition of DPPH (DPPH antioxidant; conc 20 μg/mL) | percentage inhibition of DPPH (DPPH antioxidant; conc 30 μg/mL) | percentage inhibition of DPPH (DPPH antioxidant; conc 50 μg/mL) | further results |
| --- | --- | --- | --- | --- | --- | --- | --- | --- | --- | --- | --- | --- | --- |
| 1.67 |  |  | 9-Phenyl-9H-thioxanthen-9-ol [Compound 3] | 0.14 ± 0.02% | 0.15 ± 0.01% | 0.15 ± 0.03% | 0.29 ± 0.01% | 18.20 ± 1.40% | 18.00 ± 2.37% | 15.60 ± 2.01% | 19.90 ± 1.0% | 20.00 ± 3.12% | IC50 (COX-1; [3]): 12.8 ± 0.63 nM; IC50 (Caco-2 cells; [4]): 9.6 ± 1.1 nM; IC50 (COX-2; [5]): 7.69 ± 0.55 nM; IC50 (Hep G2 cells; [6]): 438 ± 33 nM |
| 0.33 | 42.4 ± 0.58 nM | 130 ± 1.71 nM | N[C@@H](CSC1(c2ccccc2)c2ccccc2Oc2ccccc21)C(=O)O [Compound 6, S-(9-phenyl-9H-xanthen-9-yl)-L-cysteine] | 18.0 ± 1.02% | 18.0 ± 2.03% | 22.0 ± 1.01% | 28.0 ± 0.01% | 28.0 ± 0.01% | 30.0 ± 0.01% | 30.0 ± 0.01% | 30.0 ± 0.01% | 30.0 ± 0.01% | IC50 (Hep G2) (Hep G2 cells; [6]): did not exhibit any inhibition |

Second part, the molecule before the results:

| Molecule | COX-2 selectivity (COX-2) | IC50 (COX-1) | IC50 (COX-2) | percentage inhibition of DPPH (DPPH antioxidant; conc 1 μg/mL) | percentage inhibition of DPPH (DPPH antioxidant; conc 2 μg/mL) | percentage inhibition of DPPH (DPPH antioxidant; conc 3 μg/mL) | percentage inhibition of DPPH (DPPH antioxidant; conc 5 μg/mL) | percentage inhibition of DPPH (DPPH antioxidant; conc 7 μg/mL) | percentage inhibition of DPPH (DPPH antioxidant; conc 10 μg/mL) | percentage inhibition of DPPH (DPPH antioxidant; conc 20 μg/mL) | percentage inhibition of DPPH (DPPH antioxidant; conc 30 μg/mL) | percentage inhibition of DPPH (DPPH antioxidant; conc 50 μg/mL) | further results |
| --- | --- | --- | --- | --- | --- | --- | --- | --- | --- | --- | --- | --- | --- |
| 9-Phenyl-9H-xanthen-9-ol [Compound 4] |  |  |  | 10 ± 0.01% | 16.0 ± 0.02% | 27.0 ± 0.01% | 33.0 ± 1.21% | 33.0 ± 2.13% | 35.0 ± 2.31% | 35.0 ± 3.31% | 39.0 ± 5.51% | 39.4 ± 2.44% | IC50 (COX-1; [3]): 6.52 ± 0.85 nM; percentage inhibition against Caco-2 cells (Caco-2 cells; at 0.2 μM): 98%; IC50 (Caco-2 cells; [4]): 24.6 ± 8 nM; IC50 (COX-2; [5]): 14 ± 1.7 nM; IC50 (DPPH antioxidant): 15400 ± 6000 nM; inhibition against Hep G2 cells (Hep G2 cells; at 0.2 μM): 100%; IC50 (Hep G2 cells; [6]): 400 ± 56 nM; inhibition against HeLa cells (HeLa cells; at 0.2 μM): 98% |
| COc1cccc2c1C(=O)c1c(O)c3c(c(O)c1C2=O)C[C@@](O)(C(=O)CO)C[C@@H]3O[C@H]1C[C@H](N)[C@H](O)[C@H](C)O1 [doxorubicin, reference compound] |  |  |  |  |  |  |  |  |  |  |  |  | IC50 (Caco-2 cells; Homo sapiens, Caco-2, 48 h): 497 ± 0.36 nM; IC50 (Hep G2 cells; Homo sapiens, HepG2, 48 h): 1060 ± 43 nM; IC50 (HeLa cells; Homo sapiens, HeLa, 48 h): 110 ± 15 nM |
| OC1(Cc2ccccc2)c2ccccc2Oc2ccccc21 [Compound 1, 9-Benzyl-9H-xanthen-9-ol] |  |  |  | 0.31 ± 0.02% | 0.36 ± 0.02% | 0.36 ± 0.01% | 0.31 ± 0.01% | 36.40 ± 4.11% | 36.40 ± 3.31% | 40.20 ± 5.21% | 35.50 ± 1.01% | 35.10 ± 3.31% | inhibition at 0.2 µM (Caco-2 cells; Homo sapiens, Caco-2, read-out: percentage inhibition against Caco-2 cells): 96%; IC50 (HeLa cells; Homo sapiens, HeLa, 48 h): 213 nM; inhibition at 0.2 µM (HeLa cells; Homo sapiens, HeLa, read-out: inhibition against HeLa cells): 96% |
| N[C@@H](CSC1(Cc2ccccc2)c2ccccc2Oc2ccccc21)C(=O)O [Compound 5, S-(9-benzyl-9H-xanthen-9-yl)-L-cysteine] |  |  |  | 5.0 ± 0.01% | 6.0 ± 0.02% | 7.0 ± 0.01% | 7.0 ± 0.51% | 7.0 ± 0.67% | 7.0 ± 0.35% | 11.4 ± 1.01% | 11.4 ± 2.10% | 12.0 ± 1.33% |  |
| OC1(Cc2ccccc2)c2ccccc2Sc2ccccc21 [Compound 2, 9-Benzyl-9H-thioxanthen-9-ol] | 0.78 | 5.63 ± 0.74 nM | 7.2 ± 0.58 nM | 0.26 ± 0.01% | 0.26 ± 0.03% | 0.33 ± 0.04% | 0.33 ± 0.01% | 26.00 ± 7.20% | 27.00 ± 1.03% | 28.00 ± 2.14% | 29.00 ± 1.15% | 32.00 ± 3.75% | IC50 (Hep G2 cells; Homo sapiens, HepG2, 48 h): 161 ± 41 nM; inhibition at 0.2 µM (Hep G2 cells; Homo sapiens, HepG2, read-out: inhibition against Hep G2 cells): 100% |
| N[C@@H](CSC(c1ccccc1)(c1ccccc1)c1ccccc1)C(=O)O [STLC, S-trityl-L-cysteine] |  |  |  |  |  |  |  |  |  |  |  |  | permeability [1]: poor; water solubility [2]: poor |
| Cc1c(C)c2c(c(C)c1O)CCC(C)(C(=O)O)O2 (stereo not drawn) [Trolox, reference compound] |  |  |  | 37 ± 2.21% | 54 ± 3.42% | 81 ± 4.25% | 86 ± 5.33% | 91 ± 7.52% | 92 ± 10.71% | 93 ± 13.90% | 94 ± 10.89% | 94.5 ± 12.64% | IC50 (DPPH antioxidant): 6070 ± 800 nM |
| N[C@@H](CSC1(c2ccccc2)c2ccccc2Sc2ccccc21)C(=O)O [Compound 7, S-(9-phenyl-9H-thioxanthen-9-yl)-L-cysteine] |  | 16.7 ± 0.84 nM | 4.37 ± 0.78 nM | 22.0 ± 3.31% | 22.0 ± 3.11% | 22.0 ± 2.22% | 29.0 ± 4.22% | 22.0 ± 1.22% | 26.0 ± 3.44% | 23.0 ± 1.11% | 23.0 ± 1.21% | 23.0 ± 3.10% | COX-2 selectivity (COX-2; listed as comp (7)): 3.78; IC50 (Hep G2) (Hep G2 cells; [6]): did not exhibit any inhibition; IC50 (Hela Cells) (HeLa cells; HeLa cells, MTS, 48 h, concentration range 100-20,000 nM): no activity |
